Measured values from patent US20090280549A1, “Method for Treating Body Fluid” (priority 2005, published 2009).

Tests used:
[1] = test system: EoL-1 cells (human eosinophilic leukemia cells); assay: ATX-S10•Na(II) uptake into EoL-1 cells; assay type: cell-based; conditions: for ATX-S10•Na(II) uptake: EoL-1
Method: (§1) After labeling the compound represented by formula (II) above (hereinafter referred to as “ATX-S10•Na(II)”) with ^14C, the ATX-S10•Na(II) was dissolved in saline at a concentration of approximately 1×10^−3 mol/L, and the solution was filtered and sterilized with a 0.22 μm filter and then diluted with 1% FBS (fetal bovine serum)-containing RPMI1640 medium to prepare a 5×10^−5 mol/L ATX-S10•Na(II)-added solution.
As malignant lymphoma cells and leukemia cells, there were used THP-1 cells (human monocytic leukemia cells), EoL-1 cells (human eosinophilic leukemia cells), A3/KAW cells (human malignant lymphoma cells) and KG-1 cells (human acute myeloid leukemia cells). All of the cells were cultured using 10% FBS-containing RPMI1640 medium, with subculturing 1 to 2 times per week during the culturing. The THP-1 cells and EoL-1 cells were obtained from RIKEN BioResource Center, and the A3/KAW cells and KG-1 cells were obtained from Japan Health Sciences Foundation.
(§2) After adding 400 μL of the cell suspension and 100 μL of the ATX-S10•Na(II)-added solution to each well of a 48-well microplate and mixing, the mixtures were incubated with a CO2 incubator (37° C., 5% CO2) or allowed to stand in a refrigerating chamber (approximately 4° C.). The cells were separated immediately after addition (0 hours after addition) and 1 hour, 3 hours, 20 hours and 44 hours after addition, and ATX-S10•Na(II) uptake into the cells (including cell surface binding) was measured. The uptake with standing at 4° C. corresponds to cell surface binding, and the value of the uptake with incubation at 37° C. minus the uptake with standing at 4° C. is presumed to correspond to the substantial ATX-S 10 Na(II) uptake for each type of cell.
(§3) The cell separation and uptake measurement were performed in the following manner. Specifically, 1 mL of 1.5% BSA (bovine serum albumin)-containing PBS solution (ice-cold) was placed in a 1.5 mL tube. The suspension of cells to be separated was gently pipetted and mixed, and a 100 μL portion was taken and superposed onto the 1.5% BSA-containing PBS solution. For each well, the cell suspension (300 μL) was dispensed into three tubes (n=3). After centrifugation (3200 rpm, 10 minutes, 4° C.), the medium and 1.5% BSA-containing PBS solution were removed by suction, and then the precipitate was suspended in 100 μL of PBS(−), and 1 mL of PBS(−) was further added and mixed therewith. After additional centrifugation (3000 rpm, 10 minutes, 4° C.), the supernatant was removed by suction, and the bottom of the tube, where the precipitate is present, was cut out and transferred to a counting vial. Then 4.5 mL of liquid scintillator was added and mixed therewith, and the radioactivity was measured for 5 minutes using a liquid scintillation counter. The measured radioactivity was used to calculate the ATX-S10•Na(II) uptake (pmol/10^5 cells) into the cells.

neutrophils = assay: ATX-S10•Na(II) uptake into neutrophils; assay type: cell-based, human
Method: as §1
(§4) Erythrocytes, platelets, neutrophils and lymphocytes were prepared from blood sampled from three healthy persons (designated as A, B and C).
The erythrocytes, neutrophils and lymphocytes were prepared from heparinized blood. The heparinized blood and 6% dextran-added saline were mixed in a proportion of 3:1 (v:v), and the mixture was allowed to stand at room temperature for 30 minutes. The upper layer leukocyte fraction was centrifuged with a centrifuge tube (900 rpm, 10 minutes, 4° C.), and the precipitate was suspended in saline, superposed onto Ficoll-Hypaque® solution and centrifuged (1600 rpm, 30 minutes, room temperature). The intermediate layer was used as the lymphocyte fraction (containing monocytes) and the precipitate was used as the neutrophil fraction. The neutrophil fraction was suspended in ice-cold 0.2% NaCl solution for hemolysis, and then an equivalent amount of ice-cold 1.6% NaCl solution was immediately added to restore isotonicity. The crude erythrocyte fraction was diluted with KRP (Krebs-Ringer phosphate buffer) and centrifuged (2000 rpm, 5 minutes, 4° C.), and the buffy coat (leukocyte layer) was removed. This procedure was further repeated 4 times to yield the erythrocyte fraction.
as §2, §3
Uptake into neutrophils was measured also with addition of N-formyl-L-methionyl-L-leucyl-L-phenylalanine (hereinafter referred to as “fMLP”) (final concentration: 1×10^−7 mol/L or 1×10^−6 mol/L) or phorbol 12-myristate 13-acetate (hereinafter referred to as “PMA”) (final concentration: 1×10^−7 mol/L) to the cell suspension together with ATX-S10•Na(II).

lymphocytes = assay: ATX-S10•Na(II) uptake into lymphocytes; assay type: cell-based, human
Method: as §1, §4
The erythrocytes, neutrophils and lymphocytes were prepared from heparinized blood. […]
as §2, with “The uptake with standing at 4° C. corresponds to cell surface binding, and the value of the uptake with incubation at 37° C. minus the uptake with standing at 4° C. is presumed to correspond to the substantial ATX-S 10 Na(II) uptake for each type of cell.” left out
The cell separation and uptake measurement were performed in the following manner. […] Then 4.5 mL of liquid scintillator was added and mixed therewith, and the radioactivity was measured for 5 minutes using a liquid scintillation counter. […]

## C=Cc1c(C)c2cc3nc(cc4[nH]c(cc5nc(cc1[nH]2)C(C)=C5CCC(=O)NC(CC(=O)[O-])C(=O)[O-])c(CCC(=O)NC(CC(=O)[O-])C(=O)[O-])c4C)C(C)(O)/C3=C\C=NO.[Na+].[Na+].[Na+].[Na+] (stereo not drawn) [ATX-S10•Na(II)]
[1]; 0 hr, immediately after addition
  ATX-S10•Na(II) uptake: 0.32 pmol/10^5 cells
[1]; 1 hr, incubation at 37° C.
  ATX-S10•Na(II) uptake: 0.25 pmol/10^5 cells
[1]; 1 hr, standing at 4° C.
  ATX-S10•Na(II) uptake: 0.30 pmol/10^5 cells
[1]; 3 hr, incubation at 37° C.
  ATX-S10•Na(II) uptake: 0.48 pmol/10^5 cells
[1]; 3 hr, standing at 4° C.
  ATX-S10•Na(II) uptake: 0.32 pmol/10^5 cells
[1]; 20 hr, incubation at 37° C.
  ATX-S10•Na(II) uptake: 1.59 pmol/10^5 cells
[1]; 20 hr, standing at 4° C.
  ATX-S10•Na(II) uptake: 0.36 pmol/10^5 cells
[1]; 44 hr, incubation at 37° C.
  ATX-S10•Na(II) uptake: 3.09 pmol/10^5 cells
[1]; 44 hr, standing at 4° C.
  ATX-S10•Na(II) uptake: 0.37 pmol/10^5 cells
[1]; EoL-1 cells versus THP-1, A3/KAW and KG-1 cells
  uptake compared between cell types: fairly low value
[1]; EoL-1 cells, course over incubation time
  substantial uptake of ATX-S10•Na(II) (uptake at 37° C. minus uptake at 4° C.): increased with incubation time
neutrophils; Neutrophil (A), donor A, 0 hr, immediately after addition
  ATX-S10•Na(II) uptake: 0.21 pmol/10^5 cells
neutrophils; Neutrophil (A), 3 hr, incubation at 37° C.
  ATX-S10•Na(II) uptake: 0.38 pmol/10^5 cells
neutrophils; Neutrophil (A), 3 hr, standing at 4° C.
  ATX-S10•Na(II) uptake: 0.46 pmol/10^5 cells
neutrophils; Neutrophil (A), 20 hr, incubation at 37° C.
  ATX-S10•Na(II) uptake: 4.93 pmol/10^5 cells
neutrophils; Neutrophil (A), 20 hr, standing at 4° C.
  ATX-S10•Na(II) uptake: 0.57 pmol/10^5 cells
neutrophils; Neutrophil (B), 3 hr, incubation at 37° C.
  ATX-S10•Na(II) uptake: 0.40 pmol/10^5 cells
neutrophils; Neutrophil (B), 3 hr, standing at 4° C.
  ATX-S10•Na(II) uptake: 1.27 pmol/10^5 cells
neutrophils; Neutrophil (B), 20 hr, incubation at 37° C.
  ATX-S10•Na(II) uptake: 4.04 pmol/10^5 cells
neutrophils; Neutrophil (B), 20 hr, standing at 4° C.
  ATX-S10•Na(II) uptake: 0.47 pmol/10^5 cells
neutrophils; Neutrophil (B), 44 hr, incubation at 37° C.
  ATX-S10•Na(II) uptake: 16.32 pmol/10^5 cells
neutrophils; Neutrophil (B), 44 hr, standing at 4° C.
  ATX-S10•Na(II) uptake: 0.68 pmol/10^5 cells
neutrophils; Neutrophil (C), 3 hr, incubation at 37° C.
  ATX-S10•Na(II) uptake: 0.72 pmol/10^5 cells
neutrophils; Neutrophil (C), 3 hr, standing at 4° C.
  ATX-S10•Na(II) uptake: 0.36 pmol/10^5 cells
neutrophils; Neutrophil (C), 20 hr, incubation at 37° C.
  ATX-S10•Na(II) uptake: 10.13 pmol/10^5 cells
neutrophils; Neutrophil (C), 20 hr, standing at 4° C.
  ATX-S10•Na(II) uptake: 0.95 pmol/10^5 cells
neutrophils; Neutrophil stimulated with 1×10^−6 mol/L fMLP, 3 hr, incubation at 37° C.
  ATX-S10•Na(II) uptake: 0.75 pmol/10^5 cells
neutrophils; Neutrophil stimulated with 1×10^−6 mol/L fMLP, 3 hr, standing at 4° C.
  ATX-S10•Na(II) uptake: 2.02 pmol/10^5 cells
neutrophils; Neutrophil stimulated with 1×10^−6 mol/L fMLP, 20 hr, incubation at 37° C.
  ATX-S10•Na(II) uptake: 3.57 pmol/10^5 cells
neutrophils; Neutrophil stimulated with 1×10^−6 mol/L fMLP, 20 hr, standing at 4° C.
  ATX-S10•Na(II) uptake: 0.57 pmol/10^5 cells
neutrophils; Neutrophil stimulated with 1×10^−6 mol/L fMLP, 44 hr, incubation at 37° C.
  ATX-S10•Na(II) uptake: 14.14 pmol/10^5 cells
neutrophils; Neutrophil stimulated with 1×10^−6 mol/L fMLP, 44 hr, standing at 4° C.
  ATX-S10•Na(II) uptake: 3.28 pmol/10^5 cells
neutrophils; Neutrophil stimulated with 1×10^−7 mol/L PMA, 3 hr, incubation at 37° C.
  ATX-S10•Na(II) uptake: 4.45 pmol/10^5 cells
neutrophils; Neutrophil stimulated with 1×10^−7 mol/L PMA, 3 hr, standing at 4° C.
  ATX-S10•Na(II) uptake: 2.76 pmol/10^5 cells
neutrophils; Neutrophil stimulated with 1×10^−7 mol/L PMA, 20 hr, incubation at 37° C.
  ATX-S10•Na(II) uptake: 7.33 pmol/10^5 cells
neutrophils; Neutrophil stimulated with 1×10^−7 mol/L PMA, 20 hr, standing at 4° C.
  ATX-S10•Na(II) uptake: 1.09 pmol/10^5 cells
neutrophils; Neutrophil stimulated with 1×10^−7 mol/L fMLP, 3 hr, incubation at 37° C.
  ATX-S10•Na(II) uptake: 0.79 pmol/10^5 cells
neutrophils; Neutrophil stimulated with 1×10^−7 mol/L fMLP, 3 hr, standing at 4° C.
  ATX-S10•Na(II) uptake: 0.97 pmol/10^5 cells
neutrophils; Neutrophil stimulated with 1×10^−7 mol/L fMLP, 20 hr, incubation at 37° C.
  ATX-S10•Na(II) uptake: 2.67 pmol/10^5 cells
neutrophils; Neutrophil stimulated with 1×10^−7 mol/L fMLP, 20 hr, standing at 4° C.
  ATX-S10•Na(II) uptake: 0.50 pmol/10^5 cells
neutrophils; neutrophils after stimulation with WILP or PMA
  uptake after stimulation compared with unstimulated cells: no increase in uptake
neutrophils; neutrophils versus EoL-1, THP-1 and A3/KAW cells
  uptake compared between cell types: higher than EoL-1 cells, although not as high as THP-1 cells or A3/KAW cells
neutrophils; neutrophils, course over incubation time
  substantial uptake of ATX-S10•Na(II) (uptake at 37° C. minus uptake at 4° C.): increased with incubation time
lymphocytes; lymphocytes versus EoL-1, THP-1 and A3/KAW cells
  uptake compared between cell types: higher than EoL-1 cells, although not as high as THP-1 cells or A3/KAW cells
lymphocytes; lymphocytes, course over incubation time
  substantial uptake of ATX-S10•Na(II) (uptake at 37° C. minus uptake at 4° C.): increased with incubation time
